Measured values as given in patent US20080026996A1, “Selective Vpac2 Receptor Reptide Agonists” (ELI LILLY AND COMPANY, priority 2004, published 2008).
Where no end group is shown, it is not given here. [ ]: non-standard residue; d: D form. The star is where a group is joined. hArg = N=C(N)NCCCC[C@H](N)C(=O)O; Orn = NCCC[C@H](N)C(=O)O; Hexanoyl = CCCCCC(=O)*; Aib = CC(C)(N)C(=O)O

T1: human VPAC2 receptor (human, UniProt P41587 24-438)
T1 sequence (looked up): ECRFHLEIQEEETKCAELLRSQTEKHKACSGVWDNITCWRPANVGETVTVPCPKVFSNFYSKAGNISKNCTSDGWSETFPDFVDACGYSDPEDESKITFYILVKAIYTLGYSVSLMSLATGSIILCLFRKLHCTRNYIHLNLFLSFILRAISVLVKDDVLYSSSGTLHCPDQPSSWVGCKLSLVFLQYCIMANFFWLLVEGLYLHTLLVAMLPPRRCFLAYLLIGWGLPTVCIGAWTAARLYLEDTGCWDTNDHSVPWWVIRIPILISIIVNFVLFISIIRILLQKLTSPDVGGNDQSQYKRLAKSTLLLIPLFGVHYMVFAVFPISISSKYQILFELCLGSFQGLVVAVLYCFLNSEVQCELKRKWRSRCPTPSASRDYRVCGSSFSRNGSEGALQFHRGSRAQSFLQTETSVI

T2: human VPAC1 receptor (human, UniProt P32241 31-457)
T2 sequence (looked up): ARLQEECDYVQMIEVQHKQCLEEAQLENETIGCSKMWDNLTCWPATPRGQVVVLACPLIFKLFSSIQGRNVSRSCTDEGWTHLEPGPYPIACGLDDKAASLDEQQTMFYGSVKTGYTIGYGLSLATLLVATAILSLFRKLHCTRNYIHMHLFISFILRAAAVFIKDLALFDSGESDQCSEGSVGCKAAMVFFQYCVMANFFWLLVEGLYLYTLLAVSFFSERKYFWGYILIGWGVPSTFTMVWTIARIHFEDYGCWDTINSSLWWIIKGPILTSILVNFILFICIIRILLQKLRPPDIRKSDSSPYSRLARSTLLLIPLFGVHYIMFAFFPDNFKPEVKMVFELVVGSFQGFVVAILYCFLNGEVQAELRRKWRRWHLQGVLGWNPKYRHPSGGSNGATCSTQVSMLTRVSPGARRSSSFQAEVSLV

T3: human PAC1 receptor (human, UniProt P41586 21-468)
T3 sequence (looked up): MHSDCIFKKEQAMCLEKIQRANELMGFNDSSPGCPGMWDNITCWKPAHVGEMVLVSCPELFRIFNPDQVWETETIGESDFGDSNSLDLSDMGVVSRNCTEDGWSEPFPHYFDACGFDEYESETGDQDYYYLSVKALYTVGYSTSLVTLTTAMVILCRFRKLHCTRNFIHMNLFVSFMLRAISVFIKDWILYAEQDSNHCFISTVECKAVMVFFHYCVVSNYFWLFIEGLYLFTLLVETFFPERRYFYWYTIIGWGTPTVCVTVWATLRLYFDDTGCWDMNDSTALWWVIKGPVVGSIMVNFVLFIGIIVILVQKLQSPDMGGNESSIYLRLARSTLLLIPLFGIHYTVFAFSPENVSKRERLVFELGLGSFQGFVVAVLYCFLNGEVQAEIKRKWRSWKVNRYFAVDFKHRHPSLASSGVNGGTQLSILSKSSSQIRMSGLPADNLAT

T4: human VPAC2 (Homo sapiens, UniProt P41587)
T4 construct: expressed in transfected cells
T4 sequence (P41587 24-438): T1 sequence (looked up)

T5: human VPAC1 (Homo sapiens, UniProt P32241)
T5 sequence (P32241 31-457): T2 sequence (looked up)

T6: human PAC1 (Homo sapiens, UniProt P41586)
T6 sequence (P41586 21-468): T3 sequence (looked up)

B1: P24 (peptide)
peptide: HSDAVFTDNYTRLRKQVAAKKYLQSIKN[hArg]RYGGPSSGAPPPS
modifications: ends and bridges not checked
B2: P18 (peptide)
peptide: HSDAVFTDNYTRLRKQVAA[hArg]KYLQSIKNKRYGGPSSGAPPPS
modifications: ends and bridges not checked

Target: T1, human VPAC2 receptor
Assay: cell-based or functional assay
Conditions: not given

| Molecule | EC50 cAMP, DiscoveRx |
| --- | --- |
| B1 | 5.78 nM |

Target: T2, human VPAC1 receptor
Assay: cell-based or functional assay
Conditions: not given

| Molecule | EC50 cAMP, DiscoveRx |
| --- | --- |
| B2 | 0.4 nM |
| B1 | 2.5 nM |

Target: T3, human PAC1 receptor
Assay: cell-based or functional assay
Conditions: not given

| Molecule | EC50 cAMP, DiscoveRx |
| --- | --- |
| B2 | > 50 nM |
| B1 | > 100 nM |

Same assay, conditions: record 2

| Molecule | EC50 cAMP, DiscoveRx |
| --- | --- |
| B2 | 435 nM |

Target: T4, human VPAC2
Assay: Alpha screen cAMP in vitro potency, human VPAC2 receptor
Format: cell-based
Conditions: cAMP generation; single result from two analyses performed in a single run; read-out: Human VPAC2 Receptor: Alpha Screen EC50
Outline: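 Dissociated cells, 50,000 per point in stimulation buffer, were incubated with stimuli and AlphaScreen acceptor beads for 60 min.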

| Molecule | EC50 |
| --- | --- |
| Hexanoyl-HSDAVFTDNYTRLR[Aib]QVAAAKYLQSIKNKRYGGPSSGAPPPS [Agonist P263] | 0.07 nM |
| Hexanoyl-HSDAVFTDNYTRLR[Aib]QVAALKYLQSIKNKRYGGPSSGAPPPS [Agonist P265] | 0.21 nM |
| Hexanoyl-HSDAVFTDNYTRLR[Aib]QVAAVKYLQSIKNKRYGGPSSGAPPPS [Agonist P262] | 0.24 nM |
| Hexanoyl-HSDAVFTDNYTRLR[Orn]QVAAKKYLQSIKNKRYGGPSSGAPPPS [Agonist P307] | 0.32 nM |
| Hexanoyl-HSDAVFTDNYTRL[Aib]KQLAA[Aib]KYLQSIKNKRYGGPSSGAPPPS [Agonist P240] | 0.51 nM |

Target: T4, human VPAC2
Assay: Filter binding assay, membranes of stable VPAC2 cell line, 125I-labeled VIP tracer (Table 2)
Conditions: read-out: Human VPAC2 Receptor Binding
Outline: (§1)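 Scintillation counting of filter-retained radioligand gave the read-out. Compounds competed with the labelled tracer (about 40000 cpm) for 2.5 μg membranes during 1 hour of shaking in HEPES pH 7.4 buffer containing 0.5% BSA.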

| Molecule | IC50 |
| --- | --- |
| Hexanoyl-HSDAVFTDNYTRLR[Aib]QVAAAKYLQSIKNKRYGGPSSGAPPPS [Agonist P263] | 0.38 nM |
| Hexanoyl-HSDAVFTDNYTRLR[Aib]QVAALKYLQSIKNKRYGGPSSGAPPPS [Agonist P265] | 0.68 nM |
| Hexanoyl-HSDAVFTDNYTRLR[Aib]QVAAVKYLQSIKNKRYGGPSSGAPPPS [Agonist P262] | 0.61 nM |
| Hexanoyl-HSDAVFTDNYTRLR[Orn]QVAAKKYLQSIKNKRYGGPSSGAPPPS [Agonist P307] | 0.28 nM |
| Hexanoyl-HSDAVFTDNYTRL[Aib]KQLAA[Aib]KYLQSIKNKRYGGPSSGAPPPS [Agonist P240] | 6.08 nM |

System: not listed separately
Assay: Rat serum stability studies (remaining active peptide by DiscoveRx cAMP on CHO-VPAC2 cells)
Format: in vitro ADME
Conditions: not given
Outline: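 Rat serum, 18 h: +aprotinin aliquot at 4° C, no-aprotinin aliquot at 37° C. Then 30 min RT step, supernatant removed, 1 h shaking at 300 rpm. DiscoveRx cAMP kit on CHO-VPAC2; EC50 from cAMP data vs standards.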

| Molecule | Rat Serum Stability (estimated purity in % after 18 hours) | Rat Serum Stability (Estimated purity in % after 72 hours) |
| --- | --- | --- |
| Hexanoyl-HSDAVFTDNYTRLR[Aib]QVAAAKYLQSIKNKRYGGPSSGAPPPS [Agonist P263] | 11.72% |  |
| Hexanoyl-HSDAVFTDNYTRLR[Aib]QVAALKYLQSIKNKRYGGPSSGAPPPS [Agonist P265] | 8.70% |  |
| Hexanoyl-HSDAVFTDNYTRLR[Aib]QVAAVKYLQSIKNKRYGGPSSGAPPPS [Agonist P262] | 10.14% |  |
| Hexanoyl-HSDAVFTDNYTRLR[Orn]QVAAKKYLQSIKNKRYGGPSSGAPPPS [Agonist P307] | 0.32% |  |
| Hexanoyl-HSDAVFTDNYTRL[Aib]KQLAA[Aib]KYLQSIKNKRYGGPSSGAPPPS [Agonist P240] | 43.87% | 10.4% |

Target: T5, human VPAC1
Assay: Filter binding assay, membranes of cells transiently transfected with human VPAC1, 125I-labeled VIP tracer (Table 2)
Set-up: expressed in transfected cells
Conditions: read-out: Human VPAC1 Receptor Binding
Outline: as §1

| Molecule | IC50 |
| --- | --- |
| Hexanoyl-HSDAVFTDNYTRLR[Aib]QVAAAKYLQSIKNKRYGGPSSGAPPPS [Agonist P263] | 2680 nM |
| Hexanoyl-HSDAVFTDNYTRLR[Aib]QVAALKYLQSIKNKRYGGPSSGAPPPS [Agonist P265] | > 3000 nM |
| Hexanoyl-HSDAVFTDNYTRLR[Aib]QVAAVKYLQSIKNKRYGGPSSGAPPPS [Agonist P262] | > 3000 nM |
| Hexanoyl-HSDAVFTDNYTRLR[Orn]QVAAKKYLQSIKNKRYGGPSSGAPPPS [Agonist P307] | 274 nM |
| Hexanoyl-HSDAVFTDNYTRL[Aib]KQLAA[Aib]KYLQSIKNKRYGGPSSGAPPPS [Agonist P240] | > 3000 nM |

Target: T6, human PAC1
Assay: Filter binding assay, membranes of cells transiently transfected with human PAC1, 125I-labeled PACAP-27 tracer (Table 2)
Set-up: expressed in transfected cells
Conditions: read-out: Human PAC1 Receptor Binding
Outline: as §1

| Molecule | IC50 |
| --- | --- |
| Hexanoyl-HSDAVFTDNYTRLR[Aib]QVAAAKYLQSIKNKRYGGPSSGAPPPS [Agonist P263] | 636 nM |
| Hexanoyl-HSDAVFTDNYTRLR[Aib]QVAALKYLQSIKNKRYGGPSSGAPPPS [Agonist P265] | > 25000 nM |
| Hexanoyl-HSDAVFTDNYTRLR[Aib]QVAAVKYLQSIKNKRYGGPSSGAPPPS [Agonist P262] | > 25000 nM |
| Hexanoyl-HSDAVFTDNYTRLR[Orn]QVAAKKYLQSIKNKRYGGPSSGAPPPS [Agonist P307] | 293 nM |
| Hexanoyl-HSDAVFTDNYTRL[Aib]KQLAA[Aib]KYLQSIKNKRYGGPSSGAPPPS [Agonist P240] | > 25000 nM |
